Assay results from US20130289019A1, “METHODS OF TREATING BEHAVIORIAL AND/OR MENTAL DISORDERS” (AMAZING GRACE, INC., priority 2012, published 2013).

Tested on: rats (NAc infusion)
Test: swim test scores during bilateral fluoxetine infusion in the NAc
Format: in vivo, rat

CNCCC(Oc1ccc(C(F)(F)F)cc1)c1ccccc1 (centres unmarked) [Fluoxetine]
Swimming + Climbing (total escape attempts), FLU (0.2 mM bilateral in NAc, fluoxetine on Day 2 (Ringer Day 3)): 54 ± 30
Swimming + Climbing (total escape attempts), FLU (0.2 mM bilateral in NAc, fluoxetine on Day 3 (Ringer Day 2)): 74 ± 13
Swimming + Climbing (total escape attempts), FLU (0.2 mM bilateral in NAc, on Day 2 or Day 3 (combined)): 66 ± 12
Swimming + Climbing (total escape attempts), FLU (0.5 mM bilateral in NAc, fluoxetine on Day 2 (Ringer Day 3)): 51 ± 9
Swimming + Climbing (total escape attempts), FLU (0.5 mM bilateral in NAc, fluoxetine on Day 3 (Ringer Day 2)): 81 ± 9
Swimming + Climbing (total escape attempts), FLU (0.75 mM bilateral in NAc, fluoxetine on Day 2 (Ringer Day 3)): 58 ± 11
Swimming + Climbing (total escape attempts), FLU (0.75 mM bilateral in NAc, fluoxetine on Day 3 (Ringer Day 2)): 73 ± 11
Swimming + Climbing (total escape attempts), FLU (0.75 mM bilateral in NAc, on Day 2 or Day 3 (combined)): 67 ± 7
